Experimental findings from patent US6969711B2, “Cyclic diamine compounds and medicine containing the same” (Kowa Company, Ltd., priority 1997, dated 2005) are described below.

In the case of `CSc1cccc2nc(SCCN3CCN(CC(=O)Nc4c(C(C)C)cccc4C(C)C)CC3)oc12` [Example 112, 2-[4-[2-(7-methylthiobenzoxazol-2-ylthio)ethyl]piperazin-1-yl]-N-(2,6-diisopropylphenyl)acetamide], the melting point lay within 120 to 121 °C.
Under `Cc1cc(SC(C)C)c(NC(=O)CN2CCN(CCSc3nc4cccc([N+](=O)[O-])c4o3)CC2)c(SC(C)C)n1` [Example 107, 2-[4-[2-(7-nitrobenzoxazol-2-ylthio)ethyl]-piperazin-1-yl]-N-[2,4-bis(isopropylthio)-6-methyl-3-pyridyl]acetamide] stands 57 to 59 °C; under `COc1ccc(C(C)C)c(NC(=O)CN2CCN(CCCSc3nc4ccccc4o3)CC2)c1C(C)C` [Example 70, 2-[4-[3-(benzoxazol-2-ylthio)propyl]piperazin-1-yl]-N-(2,6-diisopropyl-3-methoxyphenyl)acetamide], 105 to 107 °C; under `CCSc1cc(C)nc(SCC)c1NC(=O)CN1CCN(CCSc2nc3ncccc3o2)CC1.O=C(O)/C=C\C(=O)O.O=C(O)/C=C\C(=O)O`, 148 to 149 °C.
Turning to `CC(C)c1cccc(C(C)C)c1NC(=O)CN1CCN(CCSc2nc3cccc(-c4cc[nH]n4)c3o2)CC1` [Example 103, 2-[4-[2-[7-(pyrazol-3-yl)benzoxazol-2-ylthio]ethyl]piperazin-1-yl]-N-(2,6-diisopropylphenyl)acetamide], the melting point lay in the range of 181 to 183 °C.
Under `CCCCCCCN(CCN1CCN(CCSc2nc3ccccc3o2)CC1)C(=O)Nc1c(C(C)C)cccc1C(C)C` [Example 16, N-[2-[4-[2-(benzoxazol-2-ylthio)ethyl]piperazin-1-yl]ethyl]-N′-(2,6-diisopropylphenyl)-N-heptylurea] stands 110 to 111 °C.
Under `CSc1cc(C)nc(SC)c1NC(=O)CCN1CCN(CCCSc2nc3ncccc3o2)CC1.Cl.Cl` stands 224 to 227 °C; under `CC(C)c1ccc(N(C)C)c(C(C)C)c1NC(=O)CN1CCN(CCSc2nc3ccccc3o2)CC1` [Example 59, 2-[4-[2-(benzoxazol-2-ylthio)ethyl]piperazin-1-yl]-N-(2,6-diisopropyl-3-dimethylaminophenyl)acetamide], 159 to 161 °C; under `CC(C)c1ccc(NS(C)(=O)=O)c(C(C)C)c1NC(=O)CN1CCN(CCSc2nc3cccc(C(F)(F)F)c3o2)CC1.O=C(O)/C=C\C(=O)O.O=C(O)/C=C\C(=O)O`, 172 to 174 °C.
`CC(C)c1cccc(C(C)C)c1NC(=O)CN1CCN(CCSc2nc3ccccc3s2)CC1` [Example 2, 2-[4-[2-(benzothiazol-2-ylthio)ethyl]-piperazin-1-yl]-N-(2,6-diisopropylphenyl)acetamide]: the melting point was 170 to 171 °C.
Under `CC(C)c1cc(C(C)C)c(NC(=O)CN2CCN(CCSc3nc4ccccc4[nH]3)CC2)c(C(C)C)c1` [Example 49, 2-[4-[2-(benzimidazol-2-ylthio)ethyl]piperazin-1-yl]-N-(2,4,6-triisopropylphenyl)acetamide] stands 217 to 218 °C.
Under `COc1ccc(C(C)C)c(NC(=O)CN2CCN(CCSc3nc4ccccc4o3)CC2)c1C(C)C.Cl.Cl` stands 218 to 222 °C; under `Cc1cc(SC(C)C)c(NC(=O)CN2CCN(CCSc3nc4ccccc4o3)CC2)c(SC(C)C)n1.Cl.Cl`, 159 to 164 °C; under `COC(=O)c1cccc2nc(SCCN3CCN(CC(=O)Nc4c(SC(C)C)cc(C)nc4SC(C)C)CC3)oc12` [Example 39, N-[2,4-bis(isopropylthio)-6-methyl-3-pyridyl]-2-[4-[2-(7-methoxycarbonylbenzoxazol-2-ylthio)ethyl]piperazin-1-yl]acetamide], 60 to 63 °C.
Under `CSc1cc(C)nc(SC)c1NC(=O)CN1CCN(CCCSc2nc3ccccc3o2)CC1` [Example 28, 2-[4-[3-(benzoxazol-2-ylthio)propyl]piperazin-1-yl]-N-[2,4-bis(methylthio)-6-methyl-3-pyridyl]acetamide] stands 160 to 161 °C; under `Cc1c(Cl)cc(C(C)C)c2oc(SCCN3CCN(CC(=O)Nc4c(C(C)C)cccc4C(C)C)CC3)nc12` [Example 97, 2-[4-[2-(5-chloro-7-isopropyl-4-methylbenzoxazol-2-ylthio)ethyl]piperazin-1-yl]-N-(2,6-diisopropylphenyl)acetamide], 162 to 163 °C; under `CC(C)c1cc(OC(=O)[C@H](C)N)cc(C(C)C)c1NC(=O)CN1CCN(CCSc2nc3ccccc3o2)CC1.O=C(O)C(F)(F)F.O=C(O)C(F)(F)F.O=C(O)C(F)(F)F`, 183 to 184 °C.
Compound `CCOCCOc1ccc(C(C)C)c(NC(=O)CN2CCN(CCSc3nc4ccccc4o3)CC2)c1C(C)C` [Example 65, 2-[4-[2-(benzoxazol-2-ylthio)ethyl]piperazin-1-yl]-N-[2,6-diisopropyl-3-(2-ethoxyethyloxy)phenyl)acetamide] gave a melting point of 100 to 103 °C.
Under `Cc1cc(C)c(NC(=O)CN2CCN(CCSc3nc4ccccc4o3)CC2)c(C)n1` [Example 47, 2-[4-[2-(benzoxazol-2-ylthio)ethyl]piperazin-1-yl]-N-(2,4,6-trimethyl-3-pyridyl)acetamide] stands 159 to 160 °C.
`CCSc1cc(C)nc(SCC)c1NC(=O)CN1CCN(CCSc2nc3cccc(C(F)(F)F)c3o2)CC1` [Example 89, 2-[4-[2-(7-trifluoromethylbenzoxazol-2-ylthio)ethyl]piperazin-1-yl]-N-[2,4-bis(ethylthio)-6-methyl-3-pyridyl]acetamide] yielded a melting point of 107 to 108 °C.
In turn, `CC(C)c1cc(O)cc(C(C)C)c1NC(=O)CN1CCN(CCSc2nc3ccccc3o2)CC1` [Example 72, 2-[4-[2-(benzoxazol-2-ylthio)ethyl]piperazin-1-yl]-N-(2,6-diisopropyl-4-hydroxyphenyl)acetamide] gave a melting point of 162 to 164 °C.
Under `CC(C)c1cccc(C(C)C)c1NC(=O)CN1CCN(CCSc2nc3cccc(C(C)(C)C)c3o2)CC1` [Example 95, 2-[4-[2-(7-tert-butylbenzoxazol-2-ylthio)ethyl]piperazin-1-yl]-N-(2,6-diisopropylphenyl)acetamide] stands 138 to 140 °C; under `Cc1cc(SC(C)C)c(NC(=O)CN2CCN(CCSc3nc4ncccc4o3)CC2)c(SC(C)C)n1.Cl.Cl`, 170 to 172 °C.
Under `CSc1ccc(C(C)C)c(NC(=O)CN2CCN(CCSc3nc4ccccc4o3)CC2)c1C(C)C` [Example 60, 2-[4-[2-(benzoxazol-2-ylthio)ethyl]piperazin-1-yl]-N-[2,6-diisopropyl-3-(methylthio)phenyl]acetamide] stands 148 to 150 °C; under `CCSc1cc(C)nc(SCC)c1NC(=O)CN1CCN(CCSc2nc3ccc(COC)c(COC)c3o2)CC1` [Example 101, 2-[4-[2-(6,7-bis(methoxymethyl)benzoxazol-2-ylthio)ethyl]piperazin-1-yl]-N-(2,4-bis(ethylthio)-6-methyl-3-pyridyl)acetamide], 118 to 120 °C; under `CC(C)c1cccc(C(C)C)c1NC(=O)NCCN1CCN(CCSc2nc3ccccc3[nH]2)CC1` [Example 80, N-[2-[4-[2-(benzimidazol-2-ylthio)ethyl]piperazin-1-yl]ethyl]-N′-(2,6-diisopropylphenyl)urea], 120 to 122 °C.
